We go through 3 compounds from article PMC10293842 (Proceedings of the National Academy of Sciences of the …, 2023).

Positions of bridges follow the written chain, without caps; N, C: chain ends. Residues, ends and D or L forms follow the SMILES beside them.

One experiment has as its system Omicron BA.1. The conditions noted are these: cited from earlier work.
For another experiment, the system named is Omicron BA.2. The conditions noted are these: cited from earlier work.
Experiment [1] has as its system WIV-16-S pseudovirus on VeroE6 cells. The class given is cell-based.
For experiment [2], the system named is SARS1-S pseudovirus on VeroE6 cells. The class given is cell-based.
Experiment [3] concerns SARS-CoV-2 S (Wuhan-Hu-1) pseudo-typed VSV on VeroE6 cells. The format is cell-based.
Experiment [4] relates to Omicron (B.1.1.529) BA.1 S pseudotyped virus on VeroE6 cells. The class given is cell-based, SARS-CoV-2.
Experiment [5] concerns Omicron BA.2 S pseudotyped virus on VeroE6 cells. The class given is cell-based, SARS-CoV-2.
For experiment [6], the system named is SARS-CoV-2 ancestral Wuhan strain in HEK293 ACE2+ TMPRSS2+ cells. The conditions noted are these: 24 h.
In experiment [7] the test system is Delta (B.1.617.2) S pseudotyped virus on VeroE6 cells. The class given is cell-based, SARS-CoV-2.
In experiment [8] the test system is Beta (B.1.351) S pseudotyped virus on VeroE6 cells. The format is cell-based, SARS-CoV-2.
Experiment [9] deals with Alpha (B.1.1.7) S pseudotyped virus on VeroE6 cells. The format is cell-based, SARS-CoV-2.
The subject of another experiment is Omicron BA.1 and BA.2. The settings on record: cited from earlier work.

Regarding Sotrovimab, the “loss in potency against Omicron BA.1” value in the experiment with Omicron BA.1 is on record as “threefold”. Moreover, the “loss in potency against Omicron BA.2” value in the experiment with Omicron BA.2 is reported as 27 fold.

Take `CC[C@H](C)[C@@H]1NC(=O)[C@H](CCC(N)=O)NC(=O)[C@H](CCC(=O)O)NC(=O)[C@H](CCCNC(=N)N)NC(=O)[C@@H]2CCCN2C(=O)[C@H](CCCNC(=N)N)NC(=O)[C@H](CCCNC(=N)N)NC(=O)[C@H](Cc2ccc(O)cc2)NC(=O)CSC[C@@H](C(=O)NCC(N)=O)NC(=O)[C@H](Cc2ccccc2)NC(=O)[C@H](C(C)C)NC(=O)[C@H](Cc2c[nH]c3ccccc23)NC(=O)[C@H](CC(C)C)NC(=O)[C@H](CO)NC(=O)CNC(=O)[C@H]([C@@H](C)CC)NC(=O)[C@H]([C@@H](C)CC)NC1=O` [Peptide S1b3inL1] ({CH2CO}-YRRPREQIIIGSLWVFCG-NH2; thioether N-17): the “change of infection inhibition, WIV-16-S” value in [1] was 4.1 fold. For the same compound, the “change of infection inhibition, SARS1-S” value in [2] was found to be 1.3 fold. In experiment [3], the “pseudoviral neutralization activity (in words)” value is reported as “submicromolar concentrations”. The “fluctuation of EC50, Omicron BA.1” value in [4] was determined as 3.1 fold. Moreover, the “fluctuation of EC50, Omicron BA.2” value in [5] came out at 2.1 fold. In experiment [6], a half-maximal effect (EC50) was put at 5.2 µM. The “fluctuation of EC50, Delta” value in experiment [7] worked out at 2.1 fold. For the same compound, the “fluctuation of EC50, Beta” value in [8] is listed as 3.1 fold. Further, the “fluctuation of EC50, Alpha” value in [9] amounted to 1.5 fold.

In the case of Cilgavimab [reference compound], the decrease in activity in the experiment with Omicron BA.1 and BA.2 is reported as 20 fold.
